The nature of data set [1]: Bioavailability in rat (dose 3 mg/kg p.o.). Type of data set: ADME, organism-based. The settings on record: in vivo, po.
Data set [2] concerns the target T1, Endothelin receptor type B (Homo sapiens, UniProt P24530).
T1 sequence (P24530 whole entry): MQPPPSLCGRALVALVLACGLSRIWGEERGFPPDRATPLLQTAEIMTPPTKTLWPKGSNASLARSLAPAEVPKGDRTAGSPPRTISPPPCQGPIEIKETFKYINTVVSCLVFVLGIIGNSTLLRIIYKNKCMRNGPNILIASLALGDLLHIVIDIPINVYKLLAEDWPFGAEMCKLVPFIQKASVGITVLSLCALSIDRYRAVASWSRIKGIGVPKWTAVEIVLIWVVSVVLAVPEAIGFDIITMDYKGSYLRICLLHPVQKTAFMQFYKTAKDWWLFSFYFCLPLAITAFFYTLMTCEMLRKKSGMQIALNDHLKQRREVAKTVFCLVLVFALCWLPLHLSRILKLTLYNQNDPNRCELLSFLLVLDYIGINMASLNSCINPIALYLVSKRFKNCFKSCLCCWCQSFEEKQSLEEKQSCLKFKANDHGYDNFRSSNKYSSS
Nature of the data set: Inhibitory activity against [125I]ET1 binding to human endothelin B receptor.

The target in data set [3] is T2, Endothelin-1 receptor (Homo sapiens, UniProt P25101).
T2 sequence (P25101 whole entry): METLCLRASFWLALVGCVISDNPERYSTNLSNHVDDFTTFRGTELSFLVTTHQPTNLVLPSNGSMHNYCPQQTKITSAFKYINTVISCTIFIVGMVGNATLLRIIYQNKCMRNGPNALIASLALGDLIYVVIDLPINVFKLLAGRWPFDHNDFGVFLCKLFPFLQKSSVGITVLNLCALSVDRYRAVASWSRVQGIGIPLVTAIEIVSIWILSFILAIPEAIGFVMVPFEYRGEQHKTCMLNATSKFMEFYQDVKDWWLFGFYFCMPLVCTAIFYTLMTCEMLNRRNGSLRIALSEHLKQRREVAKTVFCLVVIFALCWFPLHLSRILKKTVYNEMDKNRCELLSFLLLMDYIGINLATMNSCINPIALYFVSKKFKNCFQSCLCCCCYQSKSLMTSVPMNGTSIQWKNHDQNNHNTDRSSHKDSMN
Nature of the data set: Inhibitory activity against [125I]ET1 binding to human endothelin A receptor.

Data set [4] deals with Mus musculus. Kind of data set: In vivo efficacy of compound was determined in mouse after intravenous administration. In kind it is functional.
Data set [5] is filed under the species Oryctolagus cuniculus. Nature of the data set: Antagonistic activity towards endothelin A receptor was evaluated using the rabbit iliac artery in presence of 3% human serum albumin. Type of data set: functional.
Data set [6] relates to Rattus norvegicus. Kind of data set: Plasma levels of compound was evaluated in rats after 4 hr of oral administration at 3 mg/kg. In kind it is functional, organism-based. The arrangement: dose 3 mg/kg.
Data set [7] deals with Rattus norvegicus. Kind of data set: Plasma levels of compound was evaluated in rats after 8 hr of oral administration at 3 mg/kg. In kind it is functional, organism-based. The arrangement: dose 3 mg/kg.
Data set [8] has as its system Rattus norvegicus. Nature of the data set: Plasma levels of compound was evaluated in rats after 1 hr of oral administration at 3 mg/kg. In kind it is functional, organism-based. The arrangement: dose 3 mg/kg.
The target of data set [9] is Endothelin receptor, ET-A/ET-B (Homo sapiens) (UniProt P24530+P25101). Nature of the data set: Selectivity ratio of inhibitory activity towards endothelin receptor A to endothelin receptor B (ETB/ETA). In kind it is protein assay.
Data set [10] in a line: Bioavailability in rat (dose 1 mg/kg i.v.). In kind it is ADME, organism-based. The settings on record: in vivo, iv.

The term bioavailability denotes the share of a dose that reaches the circulation, judged against a reference dose that is usually intravenous. A word on the IC50: it is the midpoint of a concentration-inhibition curve. Read a high IC50 as a need for much substance. As for `COc1ccc([C@@H]2c3nc(NC(C)C)ccc3[C@H](c3ccc4c(c3)OCO4)[C@H]2C(=O)O)c(CO)c1`, the bioavailability in [1] was found to be 57%. Further, the figures for the IC50 in data set [2] and in data set [3] were 62 nM and 0.062 nM, respectively. This compound gave an AD50 in data set [4] of 0.12 MPK. In data set [5], the PKB was found to be 7.76. Moreover, the values for the Plasma level in data set [6], in data set [7] and in [8] were 94 nM, 19 nM and 130 nM, respectively. Besides, the Selectivity ratio in [9] was 1000.

In data set [10], `COc1ccc([C@@H]2c3nc(NC(C)C)ccc3[C@H](c3ccc4c(c3)OCO4)[C@H]2C(=O)O)c(CC(C)CO)c1` (stereo in doubt; form 1) showed a bioavailability of 7.6%. In addition, the concentration for half-maximal inhibition (IC50) in [2] came to 54 nM; in [3], 0.041 nM. Moreover, the AD50 in [4] is reported as 0.034 MPK. In data set [5], the PKB came to 8.33.

Consider `COCC(C)Cc1cc(OC)ccc1[C@@H]1c2nc(NC(C)C)ccc2[C@H](c2ccc3c(c2)OCO3)[C@H]1C(=O)O` (stereo in doubt; form 1) [listing 1 of 2 here], for which the values for the Plasma level in [6], in data set [7] and in data set [8] were 81 nM, 52 nM and 220 nM, respectively. Also, the Selectivity ratio in [9] came out at 1900.

As to `COc1ccc([C@@H]2c3nc(NC(C)C)ccc3[C@H](c3ccc4c(c3)OCO4)[C@H]2C(=O)O)c(CN(C)C(C)=O)c1`, the figures for the IC50 in data set [2] and in data set [3] were 43 nM and 0.027 nM, respectively. In addition, the PKB in data set [5] amounted to 8.97. In addition, the Plasma level was determined as 3 nM in data set [6], 0.4 nM in [7] and 2 nM in data set [8]. Further, the Selectivity ratio in data set [9] was found to be 1600.

Regarding `COCC(C)Cc1cc(OC)ccc1[C@@H]1c2nc(NC(C)C)ccc2[C@H](c2ccc3c(c2)OCO3)[C@H]1C(=O)O` (stereo in doubt; form 1) [listing 2 of 2 here], the bioavailability in data set [10] and in data set [1] was 70% throughout. For the same compound, the half-maximal inhibitory concentration (IC50) came out at 48 nM in [2] and 0.025 nM in data set [3]. In addition, the AD50 in data set [4] worked out at 0.039 MPK. The PKB in data set [5] was determined as 8.33.
